The record followed here is ChEMBL document CHEMBL4251644, “Synthesis and biological characterization of novel rose bengal derivatives with improved amphiphilicity for sono-photodynamic therapy” (Eur J Med Chem, 2018).

Series [1] can be described thus: Drug uptake in mouse B16F10 cells assessed as localization in mitochondria at 5 uM after 1.5 hrs by MitoTracker Green staining-based fluorescence assay. The series is classed as ADME. The conditions noted are these: b16-f10, 1.5 h.
The nature of series [2]: Drug uptake in mouse B16F10 cells assessed as localization in lysosomes at 5 uM after 1.5 hrs by LysoTracker staining-based fluorescence assay. The conditions noted are these: b16-f10, 1.5 h. Type of series: ADME, subcellular, Lysosome.
The test system of series [3] is MCF7. Briefly: Photodynamic anticancer activity in human MCF7 cells preincubated for 2 hrs followed by light exposure at 27 J/cm2 for 30 mins and subsequent incubation for 24 hrs by MTT assay. Conditions: MCF7, light or radiation study.
The test system of series [4] is HepG2. Briefly: Photodynamic anticancer activity in human HepG2 cells preincubated for 2 hrs followed by light exposure at 27 J/cm2 for 30 mins and subsequent incubation for 24 hrs by MTT assay. Conditions: HepG2, light or radiation study. For orientation: Tetrazolium assays rely on reduction of a dye to a coloured formazan, in cell work by metabolically active cells.

A short description of series [5]: Octanol-water partition coefficient, log P of the compound after 10 mins. Type of series: physicochemical.
For series [6], the system named is HepG2. Briefly: In vitro sonodynamic anticancer activity against human HepG2 cells at 25 uM preincubated for 2 hrs followed by exposure to ultrasound at 1.0 MHz and 2 W/cm2 intensity for 3 mins and subsequent incubation for 24 hrs by MTT assay. Type of series: functional, cell-based.
Series [7] concerns HepG2. Briefly: Toxicity in human HepG2 cells up to 5 uM incubated in dark for 24 hrs by MTT assay. The conditions noted are these: hepg2, 24 h. The series is classed as cell-based.
The test system of series [8] is B16-F10. The series is described as follows: Photodynamic anticancer activity in mouse B16F10 cells preincubated for 2 hrs followed by light exposure at 27 J/cm2 for 30 mins and subsequent incubation for 24 hrs by MTT assay. Conditions: B16-F10, light or radiation study.
Series [9] relates to MCF7. Briefly: Toxicity in human MCF7 cells up to 5 uM incubated in dark for 24 hrs by MTT assay. The series is classed as cell-based. Conditions: mcf7, 24 h.
Series [10] concerns B16-F10. The series is described as follows: Toxicity in mouse B16F10 cells up to 5 uM incubated in dark for 24 hrs by MTT assay. Type of series: cell-based. Conditions: b16-f10, 24 h.
The nature of series [11]: Drug uptake in human HepG2 cells at 5 uM after 2 hrs by confocal microscopy. The series is classed as ADME, cell-based. Conditions: hepg2, 2 h.
Series [12] relates to HepG2. The series is described as follows: Induction of intracellular ROS generation in human HepG2 cells at 1 uM preincubated for 2 hrs followed by light exposure at 27 J/cm2 for 30 mins by DCFH-DA staining-based fluorescence analysis. Type of series: functional, cell-based.
Series [13] deals with HepG2. Briefly: Induction of intracellular ROS generation in human HepG2 cells at 1 uM preincubated for 2 hrs followed by exposure to ultrasound at 1.0 MHz and 2 W/cm2 intensity for 3 mins by DCFH-DA staining-based fluorescence analysis. The series is classed as functional, cell-based.
Series [14] concerns HepG2. The series is described as follows: In vitro sono-photodynamic anticancer activity against human HepG2 cells at 0.5 uM preincubated for 2 hrs followed by exposure to ultrasound at 1.0 MHz and 2 W/cm2 intensity for 3 mins followed by immediate irradiation with light at 27 J/cm2 for 30 mins and subsequent incubation for 24 hrs by MTT assay. The series is classed as functional, cell-based.

In series [15] the test system is HepG2. The series is described as follows: Induction of intracellular ROS generation in human HepG2 cells at 1 uM preincubated for 2 hrs followed by exposure to ultrasound at 1.0 MHz and 2 W/cm2 intensity for 3 mins followed by immediate irradiation with light at 27 J/cm2 for 30 mins by DCFH-DA staining-based fluorescence analysis. Type of series: functional, cell-based.

Active and inactive are the calls of the source. The calls are words filed in the database; no cut-off is given here. A value given as a limit tells only on which side of the number the result lay.

One may read the IC50 as the concentration at which inhibition is half-maximal. Read a high IC50 as lower potency. In general, logP refers to a log measure of how a compound divides between an organic and an aqueous phase. Low readings indicate a more hydrophilic compound, high ones a more lipophilic compound. Regarding `O=C(CCCCCCCOC(=O)c1c(Cl)c(Cl)c(Cl)c(Cl)c1-c1c2cc(I)c(=O)c(I)c-2oc2c(I)c(O)c(I)cc12)Nc1cccc2cccnc12`, the Drug uptake entry in [1], in series [2] and in series [11] was “Active” in each case. Further, the values for the IC50 in the series on MCF7 [3], in the series on HepG2 [4] and with B16-F10 [8] were 850 nM, 610 nM and 1190 nM, respectively. For the same compound, in series [5], the logP at 10 min is 1.21. In the series on HepG2 [6], the outcome was inactive. The Activity entry in the series on HepG2 [7], with MCF7 [9] and with B16-F10 [10] was “Non-Toxic” each time.

For the compound `O=C(O)CCCCCCCOC(=O)c1c(Cl)c(Cl)c(Cl)c(Cl)c1-c1c2cc(I)c(=O)c(I)c-2oc2c(I)c(O)c(I)cc12`, the Drug uptake result in [1], in [2] and in series [11] was “Active” throughout. Moreover, the IC50 with MCF7 [3] was found to be 2880 nM; with HepG2 [4], 2150 nM; in the series on B16-F10 [8], 2170 nM. In series [5], this compound came in with a logP at 10 min of 0.91. Besides, the Activity result with HepG2 [7], in the series with MCF7 [9] and with B16-F10 [10] was “Non-Toxic” in each case.

`COCCOCCOC(=O)CCCCCCCOC(=O)c1c(Cl)c(Cl)c(Cl)c(Cl)c1-c1c2cc(I)c(=O)c(I)c-2oc2c(I)c(O)c(I)cc12`: the Drug uptake entry in series [1], in [2] and in [11] was “Active” throughout. For the same compound, the 50% inhibitory concentration (IC50) was 460 nM in the series on MCF7 [3], 280 nM in the series on HepG2 [4] and 780 nM in the series with B16-F10 [8]. For the same compound, the logP at 10 min in series [5] was 0.92. Also, the result with HepG2 [12], in the series with HepG2 [6], with HepG2 [14] and with HepG2 [15] was Active. In addition, the Activity entry with HepG2 [7], in the series with MCF7 [9] and in the series with B16-F10 [10] was “Non-Toxic” each time. In the series with HepG2 [13], the outcome was inactive.

`O=C([O-])c1c(Cl)c(Cl)c(Cl)c(Cl)c1-c1c2cc(I)c(=O)c(I)c-2oc2c(I)c([O-])c(I)cc12.[Na+].[Na+]` [ROSE BENGAL SODIUM]: the Drug uptake result in series [1], in series [2] and in [11] was “Active” each time. For the same compound, the IC50 in the series on MCF7 [3], in the series on HepG2 [4] and with B16-F10 [8] was over 5000 nM throughout. The compound further yielded a logP at 10 min in [5] of -0.56. For the same compound, the Activity result with HepG2 [7], in the series with MCF7 [9] and with B16-F10 [10] was “Non-Toxic” throughout.

Consider `O=C(CCCCCCCOC(=O)c1c(Cl)c(Cl)c(Cl)c(Cl)c1-c1c2cc(I)c(=O)c(I)c-2oc2c(I)c(O)c(I)cc12)Nc1cccc2ccccc12`, for which the Drug uptake entry in [1], in series [2] and in series [11] was “Active” in each case. Moreover, the half-inhibitory concentration (IC50) in the series with MCF7 [3] was determined as 1260 nM; in the series with HepG2 [4], 880 nM; in the series on B16-F10 [8] it was 1440 nM. This compound also came in with a logP at 10 min in series [5] of 0.94. Besides, the result in the series on HepG2 [6] was inactive. The Activity result in the series with HepG2 [7], in the series with MCF7 [9] and in the series on B16-F10 [10] was “Non-Toxic” each time.

Take `COCCOCCOCCOCCOC(=O)CCCCCCCOC(=O)c1c(Cl)c(Cl)c(Cl)c(Cl)c1-c1c2cc(I)c(=O)c(I)c-2oc2c(I)c(O)c(I)cc12`: the Drug uptake entry in series [1], in [2] and in series [11] was “Active” throughout. The IC50 turned out to be 1260 nM in the series on MCF7 [3], 670 nM in the series on HepG2 [4] and 1230 nM with B16-F10 [8]. Further, the logP at 10 min in series [5] was 0.8. In the series with HepG2 [6], the result was Active. Besides, the Activity result with HepG2 [7], in the series on MCF7 [9] and in the series on B16-F10 [10] was “Non-Toxic” in each case.
